In series [1] the test system is IL-15 induced P-STAT5 in human PBMC. The series can be described thus: PBMC IL-15 Induced P-STAT5. It is filed as cell-based. Summed up: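 Flow cytometry gated on total lymphocytes measured STAT5 staining (Alexa Fluor 647 antibody, overnight, 4 °C) in fixed, methanol-permeabilised human PBMC. Cells had received compound for 15 min at 37 °C (0.2% DMSO final), followed by 41 ng/mL final human IL-15 for 15 min.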

In series [2] the target is T1, JAK3 enzyme (Homo sapiens, UniProt P52333).
T1 sequence (P52333 1-1124): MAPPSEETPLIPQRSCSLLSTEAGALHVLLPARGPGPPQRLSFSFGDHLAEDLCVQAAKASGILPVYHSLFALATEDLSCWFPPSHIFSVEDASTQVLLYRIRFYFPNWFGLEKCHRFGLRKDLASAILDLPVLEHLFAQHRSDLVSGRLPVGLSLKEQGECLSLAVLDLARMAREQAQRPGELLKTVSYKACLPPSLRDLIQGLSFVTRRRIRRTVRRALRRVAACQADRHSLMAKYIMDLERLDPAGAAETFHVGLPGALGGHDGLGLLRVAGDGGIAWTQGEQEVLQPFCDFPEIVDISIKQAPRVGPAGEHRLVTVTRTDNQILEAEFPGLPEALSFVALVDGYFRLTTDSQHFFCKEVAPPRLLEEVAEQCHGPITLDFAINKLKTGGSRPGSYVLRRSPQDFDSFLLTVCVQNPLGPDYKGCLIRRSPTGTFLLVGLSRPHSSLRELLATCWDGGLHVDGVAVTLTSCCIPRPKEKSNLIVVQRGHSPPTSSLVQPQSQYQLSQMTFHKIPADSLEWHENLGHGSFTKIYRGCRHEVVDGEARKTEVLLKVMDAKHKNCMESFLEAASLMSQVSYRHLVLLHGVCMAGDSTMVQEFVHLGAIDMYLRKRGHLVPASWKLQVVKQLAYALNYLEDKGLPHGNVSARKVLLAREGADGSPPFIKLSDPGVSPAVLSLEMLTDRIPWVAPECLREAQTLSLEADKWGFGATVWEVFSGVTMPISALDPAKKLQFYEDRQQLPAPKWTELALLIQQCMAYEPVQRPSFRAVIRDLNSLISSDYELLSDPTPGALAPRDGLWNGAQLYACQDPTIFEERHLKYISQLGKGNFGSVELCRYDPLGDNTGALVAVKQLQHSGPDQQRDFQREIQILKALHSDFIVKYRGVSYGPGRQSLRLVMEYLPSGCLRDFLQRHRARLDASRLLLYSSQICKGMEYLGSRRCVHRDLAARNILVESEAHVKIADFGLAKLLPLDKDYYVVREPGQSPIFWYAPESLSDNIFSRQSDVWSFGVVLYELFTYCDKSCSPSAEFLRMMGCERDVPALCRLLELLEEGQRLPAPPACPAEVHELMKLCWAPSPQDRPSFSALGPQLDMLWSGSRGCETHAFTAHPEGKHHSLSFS
The series can be described thus: JAK Caliper Enzyme Assay at 4 μM ATP. The series is classed as biochemical. In short, it runs like this: (§1)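 Peptide phosphorylation by the kinase, adjusted to 20%-30% conversion, is measured by microfluidic separation of substrate and product on a Caliper LC3000. Compounds run as 11-point half-log series from a 600 μM DMSO top concentration.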

For series [3], the target named is T1, JAK3 enzyme. As to the kind of experiment: JAK Caliper Enzyme Assay at 1 mM ATP. It is filed as biochemical. Summed up: as §1
Series [4] in a line: Stability of JAK3 Covalent Inhibitors in Human Whole Blood. Conditions: 1 μM test compound, 37° C., 180 min incubation; for half-life at 1 μM: both sexes, read-out: Human blood stability t1/2. It is filed as in vitro ADME. The protocol: Stability of JAK3 Covalent Inhibitors in Rat and Human Whole Blood
Rat blood was collected from 3 male Sprague-Dawley rats (200-250 g, Charles River Laboratories) and pooled for each study. Human blood was collected from healthy subjects at the Occupational Health & Wellness Center at Pfizer, Groton, Conn. and pooled for each study. Both rat and human blood was collected freshly into K2-EDTA tubes and kept on ice. An aliquot of the blood was transferred to microtubes and pre-warmed for 10 min at 37° C. using a heat block. The test compound was then added (1 μM final concentration) and the incubation was continued for 180 min at 37° C. in duplicates. An aliquot of the incubation mixture was removed at designated time points during the course of the incubation, mixed with an aliquot of acetonitrile containing an internal standard, vortexed and centrifuged. The resulting supernatants were removed and subjected to LC-MS/MS analyses to determine parent compound concentrations. Peak area ratios of the parent compound vs the internal standard were used to determine the % of parent compound remaining vs incubation time.

[5] abbreviates: human PBMC, IL-15 final 41 ng/mL, read-out: PBMC IL15_pSTAT5_IC50.
[6] abbreviates: Homo sapiens, PBMC, read-out: PBMC IL15_pSTAT5_IC50 (nM).

Where two headings read alike, the source gives them in different places. Bounds are passed on as bounds.

For `C=CC(=O)N1CC[C@H](Nc2cnc3[nH]cc(C(=O)NCC)c3n2)[C@@H](O)C1` (racemic) [Example 31, Trans-racemic-2-{[(3S,4S)-1-acryloyl-3-hydroxypiperidin-4-yl]amino}-N-ethyl-5H-pyrrolo[2,3-b]pyrazine-7-carboxamide], the IC50 in series [1] (setting [5]) stood at 3870 nM; at JAK3 enzyme [2], 0.211 nM; against JAK3 enzyme [3], 47 nM. Also, the half-life at 1 μM in series [4] was 4.9 h.
The matching figures for `C=CC(=O)N1CC[C@H](Nc2cnc3[nH]cc(C(=O)NCC)c3n2)[C@@H](O)C1` (single isomer, unassigned) [Example 32]: 9100 nM, 0.848 nM, 138 nM and more than 6 h.
The matching figures for `C=CC(=O)N1CCC(Nc2cnc3[nH]cc(C(=O)NCCCC(F)(F)F)c3n2)C1` (stereo in doubt) [Example 237, 2-{[(3S)-1-acryloylpyrrolidin-3-yl]amino}-N-(4,4,4-trifluorobutyl)-5H-pyrrolo[2,3-b]pyrazine-7-carboxamide]: 780 nM, 0.25 nM, 56 nM and 4.32 h.
Regarding `C=CC(=O)N1CCC[C@H]1COc1cnc2[nH]cc(C(=O)N[C@@H](C)COC)c2n1` (single isomer, unassigned) [Example 8], the IC50 in series [1] (setting [5]) is 133 nM; against JAK3 enzyme [2], 0.355 nM; against JAK3 enzyme [3] it was 46 nM. In series [4], the half-life at 1 μM is more than 6 h.
The matching figures for `C=CC(=O)N1CC[C@@H](Nc2cnc3[nH]cc(C(=O)NCC)c3n2)C1` (single isomer, unassigned) [Example 243]: 1730 nM, 0.586 nM, 141 nM and more than 6 h.
For `C=CC(=O)N1CC(Nc2cnc3[nH]cc(C(=O)NCC)c3n2)CCC1C` (single isomer, unassigned) [Example 76], in that order: 1150 nM, 0.566 nM, 136 nM and more than 6 h.
For `C=CC(=O)N1CCN(c2cnc3[nH]cc(C(=O)NC(C)COC)c3n2)CC1(C)C` (racemic) [Example 148, Racemic-2-(4-acryloyl-3,3-dimethylpiperazin-1-yl)-N-(1-methoxypropan-2-yl)-5H-pyrrolo[2,3-b]pyrazine-7-carboxamide], in that order: 312 nM, 0.773 nM, 111 nM and more than 6 h.
As for `C=CC(=O)N1CC[C@H](Nc2cnc3[nH]cc(C(=O)N[C@@H](C)COC)c3n2)C[C@@H]1C` (relative stereo) [Example 55, 2-{[(2S,4S)-1-acryloyl-2-methylpiperidin-4-yl]amino}-N-[(2S)-1-methoxypropan-2-yl]-5H-pyrrolo[2,3-b]pyrazine-7-carboxamide], the results for the IC50 (in series [1] (setting [6]); at JAK3 enzyme [2]; against JAK3 enzyme [3]) were 2260 nM, 2.21 nM and 192 nM, respectively. Moreover, the half-life at 1 μM in series [4] was more than 6 h.
With `C=CC(=O)N1CCC(Oc2cnc3[nH]cc(-c4ncn(C(C)C)n4)c3n2)CC1` [Example 124, 1-[4-({7-[1-(Propan-2-yl)-1H-1,2,4-triazol-3-yl]-5H-pyrrolo[2,3-b]pyrazin-2-yl}oxy)piperidin-1-yl]prop-2-en-1-one], the IC50 turned out to be 2430 nM in series [1] (setting [5]), 5.89 nM on JAK3 enzyme [2] and 1100 nM at JAK3 enzyme [3]. Also, the half-life at 1 μM in series [4] was determined as 4.86 h.
For `C=CC(=O)N1CC[C@@H](CNc2cnc3[nH]cc(C(=O)N[C@@H](C)COC)c3n2)C1` (single isomer, unassigned) [Example 17], in that order: 2560 nM, 0.319 nM, 37 nM and 3.16 h.
The matching figures for `C=CC(=O)N1CCN(c2cnc3[nH]cc(C(=O)N[C@@H]4COC[C@@H]4C4CC4)c3n2)CC1(C)C` [Example 139, 2-(4-acryloyl-3,3-dimethylpiperazin-1-yl)-N-[(3S,4R)-4-cyclopropyltetrahydrofuran-3-yl]-5H-pyrrolo[2,3-b]pyrazine-7-carboxamide]: 711 nM, 1.57 nM, 109 nM and more than 6 h.
For `C=CC(=O)N1C[C@@H](CO)C[C@@H](Nc2ncnc3[nH]ccc23)C1` (single isomer, unassigned) [Example 98], in that order: 932 nM, 1.26 nM, 152 nM and 1.76 h.
Take `C=CC(=O)N1CC[C@H](Nc2cnc3[nH]cc(C(=O)N[C@@H](C)COC)c3n2)C[C@@H]1C` (racemic) [Example 353, 2-(((2S,4S)-1-Acryloyl-2-methylpiperidin-4-yl)amino)-N—((S)-1-methoxypropan-2-yl)-5H-pyrrolo[2,3-b]pyrazine-7-carboxamide]: the IC50 in series [1] (setting [5]) came to 2200 nM; on JAK3 enzyme [2], 1.48 nM; at JAK3 enzyme [3] it was 123 nM. Also, the half-life at 1 μM in series [4] was more than 6 h.
`C=CC(=O)N1CC[C@@H](Nc2cnc3[nH]cc(C(=O)N[C@@H](C)COC)c3n2)C[C@H]1C` (stereo in doubt) [Example 56, 2-{[(2R,4R)-1-acryloyl-2-methylpiperidin-4-yl]amino}-N-[(2S)-1-methoxypropan-2-yl]-5H-pyrrolo[2,3-b]pyrazine-7-carboxamide]: the IC50 was found to be 1600 nM in series [1] (setting [6]), 0.927 nM against JAK3 enzyme [2] and 70 nM on JAK3 enzyme [3]. The half-life at 1 μM in series [4] was more than 6 h.
With `C=CC(=O)N1CC(Nc2ncnc3[nH]ccc23)CCC1[C@@H](C)O` (mixture of isomers) [Example 109], the results for the IC50 (in series [1] (setting [5]); against JAK3 enzyme [2]; at JAK3 enzyme [3]) were 320 nM, 0.713 nM and 155 nM, respectively. Also, the “Human blood stability t1/2” value in series [4] is 2.20175 h.
For the compound `C=CC(=O)N1CCC(N(C)c2cnc3[nH]cc(C(=O)NCC)c3n2)CC1` [Example 60, 2-[(1-acryloylpiperidin-4-yl)(methyl)amino]-N-ethyl-5H-pyrrolo[2,3-b]pyrazine-7-carboxamide], the IC50 in series [1] (setting [5]) stood at 379 nM; at JAK3 enzyme [2], 0.448 nM; against JAK3 enzyme [3], 130 nM. Further, the half-life at 1 μM in series [4] came out at 2.97 h.
In the case of `C=CC(=O)N1CCCC1COc1cnc2[nH]cc(C(=O)N[C@@H](C)COC)c2n1` (mixture of isomers) [Example 7, Racemic-2-[(1-acryloylpyrrolidin-2-yl)methoxyl]-N-[(2S)-1-methoxypropan-2-yl]-5H-pyrrolo[2,3-b]pyrazine-7-carboxamide], the IC50 was found to be 403 nM in series [1] (setting [5]), 1.49 nM at JAK3 enzyme [2] and 106 nM against JAK3 enzyme [3]. Moreover, in series [4], the half-life at 1 μM amounted to 2.63 h.
With `C=CC(=O)N1CC[C@@H](Oc2cnc3[nH]cc(C(=O)NCC)c3n2)C1` [Example 87, (R)-2-[(1-acryloylpyrrolidin-3-yl)oxy]-N-ethyl-5H-pyrrolo[2,3-b]pyrazine-7-carboxamide], the IC50 in series [1] (setting [5]) amounted to 6490 nM; at JAK3 enzyme [2], 14 nM; against JAK3 enzyme [3], 1320 nM. Besides, in series [4], the half-life at 1 μM is more than 6 h.

The values are drawn from patent US10703756B2, “Pyrrolo[2,3-D]pyrimidinyl, pyrrolo[2,3-B]pyrazinyl, pyrrolo[2,3-B]pyridinyl acrylamides and epoxides thereof” (Pfizer Inc., priority 2015, dated 2020).
